Where a SMILES comes first, the peptide text is derived from it. [ ]: non-standard residue; d: D form. The star is where a group is joined. NHCH2CH2OH = OCCN*; For = O=C*

Data set [1] concerns Streptococcus pyogenes SSI-9. The data set is described as follows: Antibacterial activity assay of bead-derived peptides (three concentrations). Type of data set: cell-based. Particulars: S. pyogenes, bead-derived peptide solution, three concentrations. Also on record: key: +++: inhibition by the 640-fold diluted peptide solution; ++: inhibition by the 160-fold diluted solution; +: inhibition by the 40-fold diluted solution; -: no inhibition. Summed up:
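Growth inhibition scored visually as precipitated bacteria after 37 °C, 18 h incubation. Streptococcus pyogenes SSI-9 inoculum of 2 × 10^5 CFU in Ca2+/Mg2+-adjusted Mueller Hinton broth plus 5% laked horse blood; peptides tested at three levels: stock, 4-fold and 16-fold DMSO dilutions.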

Data set [2] deals with P388 mouse leukemia cells. Conditions: 92 h. The gist of the method: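 Peptide stocks diluted 250× in growth medium; P388 cells 1 × 10^4 cells/mL final; 37 °C, 5% CO2, 92 h. WST-1 + 1-methoxy PMS, 4 h, A415. Output: % viability.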
Data set [3] can be described thus: H+/Na+ transport assay of bead-derived peptides (one-point).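 Note: relative to parent gramicidin A activity set to 1.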 It counts as biochemical. Also on record: key: relative activity; mean of two control wells = 1.00. Conditions: bead-derived peptide solution, EYPC/EYPG LUVs. The gist of the method: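 Values are normalized fluorescence, with Triton X-100 defining 100% and untreated LUVs 0%, and the two control wells averaging 1.00. Vesicles carried 1.0 mM pyranine and included egg yolk phosphatidylglycerol. Peptides were incubated with them 30 min at room temperature.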

With `CC(C)C[C@@H](NC(=O)[C@H](C)NC(=O)CNC(=O)[C@@H](NC=O)C(C)C)C(=O)N[C@@H](C)C(=O)N[C@@H](C(=O)N[C@H](C(=O)N[C@H](CC(C)C)C(=O)N[C@@H](Cc1c[nH]c2ccccc12)C(=O)N[C@@H](C(=O)N[C@@H](Cc1c[nH]c2ccccc12)C(=O)N[C@H](CC(C)C)C(=O)N[C@@H](Cc1c[nH]c2ccccc12)C(=O)N[C@@H](C(=O)N[C@@H](Cc1c[nH]c2ccccc12)C(=O)NCCO)[C@H](C)O)C(C)C)C(C)C)C(C)C` [compound 8906] (For-VGA[dL]A[dV]V[dL]W[dV]W[dL]W[dT]W-NHCH2CH2OH), in data set [1], the antibacterial activity result was “+”. Besides, the cell viability/% in data set [2] came out at 79.1%. In addition, the “H+/Na+ transport activity normalized against the value of 1 (1.00)” value (“H+/Na+ transport activity normalized” for short) in data set [3] was 1.08.

Regarding `CC(C)C[C@@H](NC(=O)[C@H](C)NC(=O)[C@H](NC(=O)[C@H](C)NC(=O)CNC(=O)[C@@H](NC=O)C(C)C)C(C)C)C(=O)N[C@H](C(=O)N[C@@H](C(=O)N[C@@H](Cc1c[nH]c2ccccc12)C(=O)N[C@@H](C(=O)N[C@@H](Cc1c[nH]c2ccccc12)C(=O)N[C@@H](C(=O)N[C@@H](Cc1c[nH]c2ccccc12)C(=O)N[C@@H](C(=O)N[C@@H](Cc1c[nH]c2ccccc12)C(=O)NCCO)C(C)C)C(C)C)C(C)C)C(C)C)C(C)C` [compound 8909] (For-VGA[dV]A[dL]V[dV]W[dV]W[dV]W[dV]W-NHCH2CH2OH), the antibacterial activity entry in data set [1] is “+”. The compound further returned a cell viability/% in data set [2] of 85.9%. Besides, in data set [3], the “H+/Na+ transport activity normalized” value came to 1.04.

As for `CC(C)C[C@@H](NC(=O)[C@H](Cc1c[nH]c2ccccc12)NC(=O)[C@@H](CC(C)C)NC(=O)[C@@H](NC(=O)[C@H](NC(=O)[C@H](C)NC(=O)[C@H](NC(=O)[C@H](C)NC(=O)CNC(=O)[C@@H](NC=O)C(C)C)C(C)C)C(C)C)C(C)C)C(=O)N[C@@H](Cc1c[nH]c2ccccc12)C(=O)N[C@@H](C(=O)N[C@@H](Cc1c[nH]c2ccccc12)C(=O)N[C@@H](C(=O)N[C@@H](Cc1c[nH]c2ccccc12)C(=O)NCCO)C(C)C)C(C)C` [compound 8969] (For-VGA[dV]A[dV]V[dL]W[dL]W[dV]W[dV]W-NHCH2CH2OH), the antibacterial activity entry in data set [1] was “-”. In data set [2], this compound returned a cell viability/% of 8.7%. The “H+/Na+ transport activity normalized” value in data set [3] worked out at 1.09.

`CNC(=O)C[C@@H](NC(=O)[C@@H](NC(=O)[C@H](NC(=O)[C@H](C)NC(=O)[C@H](NC(=O)[C@H](C)NC(=O)CNC(=O)[C@@H](NC=O)C(C)C)C(C)C)C(C)C)C(C)C)C(=O)N[C@@H](Cc1c[nH]c2ccccc12)C(=O)N[C@H](CC(C)C)C(=O)N[C@@H](Cc1c[nH]c2ccccc12)C(=O)N[C@H](CC(C)C)C(=O)N[C@@H](Cc1c[nH]c2ccccc12)C(=O)N[C@H](CC(C)C)C(=O)N[C@@H](Cc1c[nH]c2ccccc12)C(=O)NCCO` [compound 8982] (For-VGA[dV]A[dV]V[dD](NHMe)W[dL]W[dL]W[dL]W-NHCH2CH2OH): the antibacterial activity result in data set [1] was “-”. For the same compound, the cell viability/% in data set [2] came to 49.1%. Also, in data set [3], the “H+/Na+ transport activity normalized” value was found to be 1.21.

Consider `CC(C)C[C@@H](NC(=O)[C@H](C)NC(=O)[C@H](NC(=O)[C@H](C)NC(=O)CNC(=O)[C@@H](NC=O)C(C)C)C(C)C)C(=O)N[C@H](C(=O)N[C@@H](C(=O)N[C@@H](Cc1c[nH]c2ccccc12)C(=O)N[C@H](CC(C)C)C(=O)N[C@@H](Cc1c[nH]c2ccccc12)C(=O)N[C@H](CC(C)C)C(=O)N[C@@H](Cc1c[nH]c2ccccc12)C(=O)N[C@@H](C(=O)N[C@@H](Cc1c[nH]c2ccccc12)C(=O)NCCO)C(C)C)[C@H](C)O)C(C)C` [compound 8984] (For-VGA[dV]A[dL]V[dT]W[dL]W[dL]W[dV]W-NHCH2CH2OH), for which the antibacterial activity entry in data set [1] is “-”. The same compound came in with a cell viability/% in data set [2] of 57.9%. Further, the “H+/Na+ transport activity normalized” value in data set [3] came to 1.12.

In the case of `CNC(=O)C[C@@H](NC(=O)[C@@H](NC(=O)[C@@H](CC(C)C)NC(=O)[C@H](C)NC(=O)[C@@H](CC(C)C)NC(=O)[C@H](C)NC(=O)CNC(=O)[C@@H](NC=O)C(C)C)C(C)C)C(=O)N[C@@H](Cc1c[nH]c2ccccc12)C(=O)N[C@H](CC(C)C)C(=O)N[C@@H](Cc1c[nH]c2ccccc12)C(=O)N[C@H](CC(C)C)C(=O)N[C@@H](Cc1c[nH]c2ccccc12)C(=O)N[C@@H](C(=O)N[C@@H](Cc1c[nH]c2ccccc12)C(=O)NCCO)[C@H](C)O` [compound 8992] (For-VGA[dL]A[dL]V[dD](NHMe)W[dL]W[dL]W[dT]W-NHCH2CH2OH), the antibacterial activity entry in data set [1] is “-”. Moreover, the cell viability/% in data set [2] is reported as 56.1%. Further, in data set [3], the “H+/Na+ transport activity normalized” value amounted to 1.07.

Consider `CC(C)C[C@@H](NC(=O)[C@H](Cc1c[nH]c2ccccc12)NC(=O)[C@@H](CC(C)C)NC(=O)[C@H](Cc1c[nH]c2ccccc12)NC(=O)[C@H](NC(=O)[C@H](Cc1c[nH]c2ccccc12)NC(=O)[C@@H](CC(C)C)NC(=O)[C@@H](NC(=O)[C@H](NC(=O)[C@H](C)NC(=O)[C@H](NC(=O)[C@H](C)NC(=O)CNC(=O)[C@@H](NC=O)C(C)C)C(C)C)C(C)C)C(C)C)C(C)C)C(=O)N[C@@H](Cc1c[nH]c2ccccc12)C(=O)NCCO` [compound 8999] (For-VGA[dV]A[dV]V[dL]W[dV]W[dL]W[dL]W-NHCH2CH2OH), for which, in data set [1], the antibacterial activity result is reported as “+”. In data set [2], this compound came in with a cell viability/% of 96.1%. In data set [3], the “H+/Na+ transport activity normalized” value stood at 1.03.

With `CC(C)C[C@@H](NC(=O)[C@H](C)NC(=O)CNC(=O)[C@@H](NC=O)C(C)C)C(=O)N[C@@H](C)C(=O)N[C@@H](C(=O)N[C@H](C(=O)N[C@@H](C(=O)N[C@@H](Cc1c[nH]c2ccccc12)C(=O)N[C@H](CC(C)C)C(=O)N[C@@H](Cc1c[nH]c2ccccc12)C(=O)N[C@H](CC(C)C)C(=O)N[C@@H](Cc1c[nH]c2ccccc12)C(=O)N[C@H](CC(C)C)C(=O)N[C@@H](Cc1c[nH]c2ccccc12)C(=O)NCCO)C(C)C)C(C)C)C(C)C` [compound 9000] (For-VGA[dL]A[dV]V[dV]W[dL]W[dL]W[dL]W-NHCH2CH2OH), the antibacterial activity entry in data set [1] was “+”. For the same compound, the cell viability/% in data set [2] is reported as 7.4%. Further, in data set [3], the “H+/Na+ transport activity normalized” value is 1.21.

As to `CC(C)C[C@@H](NC(=O)[C@H](C)NC(=O)CNC(=O)[C@@H](NC=O)C(C)C)C(=O)N[C@@H](C)C(=O)N[C@@H](C(=O)N[C@H](C(=O)N[C@@H](C(=O)N[C@@H](Cc1c[nH]c2ccccc12)C(=O)N[C@@H](C(=O)N[C@@H](Cc1c[nH]c2ccccc12)C(=O)N[C@H](CC(C)C)C(=O)N[C@@H](Cc1c[nH]c2ccccc12)C(=O)N[C@@H](C(=O)N[C@@H](Cc1c[nH]c2ccccc12)C(=O)NCCO)C(C)C)C(C)C)C(C)C)C(C)C)[C@H](C)O` [compound 9030] (For-VGA[dL]A[dT]V[dV]W[dV]W[dL]W[dV]W-NHCH2CH2OH), the antibacterial activity result in data set [1] was “-”. Further, in data set [2], the cell viability/% came to 71.3%. Also, in data set [3], the “H+/Na+ transport activity normalized” value was 1.12.

As to `CC(C)C[C@@H](NC(=O)[C@H](C)NC(=O)CNC(=O)[C@@H](NC=O)C(C)C)C(=O)N[C@@H](C)C(=O)N[C@@H](C(=O)N[C@H](C(=O)N[C@@H](C(=O)N[C@@H](Cc1c[nH]c2ccccc12)C(=O)N[C@@H](C(=O)N[C@@H](Cc1c[nH]c2ccccc12)C(=O)N[C@H](CC(C)C)C(=O)N[C@@H](Cc1c[nH]c2ccccc12)C(=O)N[C@@H](C(=O)N[C@@H](Cc1c[nH]c2ccccc12)C(=O)NCCO)C(C)C)C(C)C)C(C)C)C(C)C)C(C)C` [compound 9036] (For-VGA[dL]A[dV]V[dV]W[dV]W[dL]W[dV]W-NHCH2CH2OH), in data set [1], the antibacterial activity entry is given as “+”. The compound also displayed a cell viability/% in data set [2] of 94.7%. The “H+/Na+ transport activity normalized” value in data set [3] is recorded as 1.18.

Turning to `CC(C)C[C@@H](NC(=O)[C@H](Cc1c[nH]c2ccccc12)NC(=O)[C@H](NC(=O)[C@H](Cc1c[nH]c2ccccc12)NC(=O)[C@H](NC(=O)[C@H](Cc1c[nH]c2ccccc12)NC(=O)[C@H](NC(=O)[C@@H](NC(=O)[C@H](NC(=O)[C@H](C)NC(=O)[C@H](NC(=O)[C@H](C)NC(=O)CNC(=O)[C@@H](NC=O)C(C)C)C(C)C)[C@H](C)O)C(C)C)C(C)C)C(C)C)C(C)C)C(=O)N[C@@H](Cc1c[nH]c2ccccc12)C(=O)NCCO` [compound 9058] (For-VGA[dV]A[dT]V[dV]W[dV]W[dV]W[dL]W-NHCH2CH2OH), the antibacterial activity entry in data set [1] is “-”. Besides, in data set [2], the cell viability/% is 58.0%. The “H+/Na+ transport activity normalized” value in data set [3] stood at 1.14.

For `CC(C)C[C@@H](NC(=O)[C@H](Cc1c[nH]c2ccccc12)NC(=O)[C@H](NC(=O)[C@H](Cc1c[nH]c2ccccc12)NC(=O)[C@H](NC(=O)[C@H](Cc1c[nH]c2ccccc12)NC(=O)[C@@H](CC(C)C)NC(=O)[C@@H](NC(=O)[C@H](NC(=O)[C@H](C)NC(=O)[C@H](NC(=O)[C@H](C)NC(=O)CNC(=O)[C@@H](NC=O)C(C)C)[C@H](C)O)C(C)C)C(C)C)C(C)C)C(C)C)C(=O)N[C@@H](Cc1c[nH]c2ccccc12)C(=O)NCCO` [compound 9075] (For-VGA[dT]A[dV]V[dL]W[dV]W[dV]W[dL]W-NHCH2CH2OH), the antibacterial activity result in data set [1] was “-”. This compound also showed a cell viability/% in data set [2] of 58.6%. Besides, the “H+/Na+ transport activity normalized” value in data set [3] amounted to 1.01.

Values taken from article PMC7531004, “Discovery of gramicidin A analogues with altered activities by multidimensional screening of a one-bead-one-compound library” (Nature Communications, 2020).
